The record followed here is paper doi:10.1101/2024.12.05.627101v1 (biorxiv, 2024).

In experiment [1] the target is T1, human mGlu5 (hmGlu5) (Homo sapiens, UniProt P41594). Kind of experiment: cell-based. On the set-up: species or system HEK293A. The settings on record: HEK293-A, read-out: iCa2+ human mGlu5 Emax.
The target in experiment [2] is T1, human mGlu5 (hmGlu5). Kind of experiment: iCa2+ mobilisation. The class given is cell-based. Background: A change in cytosolic calcium serves as a functional read-out for many receptors and channels.
The target of experiment [3] is T1, human mGlu5 (hmGlu5). As to the kind of experiment: whole-cell [3H]methoxy-PEPy inhibition binding. The format is cell-based.
The target of experiment [4] is T1, human mGlu5 (hmGlu5). As to the kind of experiment: whole-cell [3H]methoxy-PEPy inhibition binding. The class given is cell-based. This is another data set of the same source.
For experiment [5], the target named is T1, human mGlu5 (hmGlu5). Kind of experiment: IP1 accumulation. The format is cell-based.
The target in experiment [6] is T1, human mGlu5 (hmGlu5). As to the kind of experiment: IP1 accumulation. The format is cell-based. The source holds these as a separate data set.
Experiment [7] deals with T1, human mGlu5 (hmGlu5). Kind of experiment: whole-cell saturation radioligand binding. The class given is cell-based.

T1 sequence (P41594 21-1180 isoform P41594-2): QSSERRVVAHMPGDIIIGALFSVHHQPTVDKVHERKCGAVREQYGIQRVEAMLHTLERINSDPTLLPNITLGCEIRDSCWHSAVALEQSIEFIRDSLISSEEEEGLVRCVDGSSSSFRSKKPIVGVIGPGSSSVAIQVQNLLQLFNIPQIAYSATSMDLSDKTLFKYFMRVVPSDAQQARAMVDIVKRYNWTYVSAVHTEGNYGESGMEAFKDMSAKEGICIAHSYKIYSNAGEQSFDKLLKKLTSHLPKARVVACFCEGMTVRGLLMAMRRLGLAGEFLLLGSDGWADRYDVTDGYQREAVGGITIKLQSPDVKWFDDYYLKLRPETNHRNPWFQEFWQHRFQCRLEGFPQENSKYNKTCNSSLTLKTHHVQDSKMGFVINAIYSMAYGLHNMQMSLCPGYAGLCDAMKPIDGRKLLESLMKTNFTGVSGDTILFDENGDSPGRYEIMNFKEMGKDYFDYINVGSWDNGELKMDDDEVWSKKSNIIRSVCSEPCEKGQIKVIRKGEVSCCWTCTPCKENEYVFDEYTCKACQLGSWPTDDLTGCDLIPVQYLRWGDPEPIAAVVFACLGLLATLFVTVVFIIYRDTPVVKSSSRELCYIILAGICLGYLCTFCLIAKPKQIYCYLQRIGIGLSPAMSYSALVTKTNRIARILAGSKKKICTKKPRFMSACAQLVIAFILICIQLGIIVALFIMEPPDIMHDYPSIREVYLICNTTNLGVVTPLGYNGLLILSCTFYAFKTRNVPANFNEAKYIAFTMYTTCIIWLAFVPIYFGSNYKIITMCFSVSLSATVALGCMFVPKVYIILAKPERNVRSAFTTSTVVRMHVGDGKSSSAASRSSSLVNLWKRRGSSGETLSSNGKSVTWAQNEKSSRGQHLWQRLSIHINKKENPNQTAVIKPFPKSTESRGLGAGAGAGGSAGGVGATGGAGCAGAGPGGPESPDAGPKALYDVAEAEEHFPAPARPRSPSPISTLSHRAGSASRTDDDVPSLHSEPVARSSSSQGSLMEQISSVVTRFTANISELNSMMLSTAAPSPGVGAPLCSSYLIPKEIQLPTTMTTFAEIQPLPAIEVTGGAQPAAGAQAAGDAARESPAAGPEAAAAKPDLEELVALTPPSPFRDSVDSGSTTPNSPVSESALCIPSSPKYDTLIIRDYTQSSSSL

Take `N[C@H](C(=O)O)c1cc(O)cc(O)c1` [DHPG, (S)-3,5-dihydroxyphenylglycine]: the maximal effect (Emax) at human mGlu5 (hmGlu5) [1] is 80.3 ± 2.5%. This compound also gave an EC50 at human mGlu5 (hmGlu5) [2] of 1100 nM.

Consider `O=C(COCc1ccc(F)cc1)N1CCN(c2ccc(F)cc2F)CC1` [DPFE, 1-(4-(2,4-difluorophenyl)piperazin-1-yl)-2-((4-fluorobenzyl)oxy)ethanone], for which the affinity on human mGlu5 (hmGlu5) [3], expressed as Ki, was 7410 nM. In turn, `CCCCOc1ccc(C(=O)Nc2ccc(F)cc2F)cc1` [VU0357121, 4-butoxy-N-(2,4-difluorophenyl)benzamide] showed a Kd on human mGlu5 (hmGlu5) [4] of 537 nM. At human mGlu5 (hmGlu5) [4], `N#Cc1cc(F)cc(C(=O)Nc2cccc(Cl)c2F)c1` [VU0366248, N-(3-chloro-2-fluorophenyl)-3-cyano-5-fluorobenzamide] gave a Kd of 224 nM. On human mGlu5 (hmGlu5) [5], the midpoint of inhibition, the IC50, lay at 115 nM. The compound `O=C(c1ccc(F)cc1)N1CCc2nc(COc3ccccc3)oc2C1` [VU0409551, (4-fluorophenyl)(2-(phenoxymethyl)-6,7-dihydrooxazolo[5,4-c]pyridin-5(4H)-yl)methanone] showed a Ki on human mGlu5 (hmGlu5) [3] of 1410 nM. Besides, the EC50 at human mGlu5 (hmGlu5) [6] is 661 nM. For the compound `C[C@@H](NC(=O)c1ccc(C#Cc2cccc(F)c2)cn1)C(C)(C)O` [VU0424465, (R)-5-((3-fluorophenyl)ethynyl)-N-(3-hydroxy-3-methylbutan-2-yl)picolinamide], the maximum response (Emax) at human mGlu5 (hmGlu5) [1] was 69.5 ± 4.5%. On human mGlu5 (hmGlu5) [4], the Kd was 35.5 nM. On human mGlu5 (hmGlu5) [2], this compound showed an EC50 of 275 nM.

For `COc1cncc(C#Cc2ccccn2)c1` [[3H]methoxy-PEPy], binding on human mGlu5 (hmGlu5) [7] was characterised by a dissociation constant (Kd) of 4.57 nM. As to `CN1CC(=O)N=C1NC(=O)Nc1cccc(Cl)c1` [fenobam, N-(3-chlorophenyl)-3-[(2e)-1-methyl-4-oxoimidazo-lidin-2-ylidene]urea], the Kd on human mGlu5 (hmGlu5) [4] was 81.3 nM. Besides, the IC50 against human mGlu5 (hmGlu5) [5] is 55 nM. On to `N[C@@H](CCC(=O)O)C(=O)O` [glutamate], for which the Emax on human mGlu5 (hmGlu5) [1] is 103 ± 3.9%.

One may read the Emax as the greatest response seen or fitted, relative to the assay's reference. The term EC50 denotes the concentration at which the effect is half-maximal. Low readings indicate a more potent agent, high ones a less potent agent. As a reminder, the Ki is the dissociation constant of the complex between target and ligand, obtained from inhibition or displacement. Low values mean higher affinity, high ones lower affinity. Usually Kd stands for the equilibrium constant for the complex coming apart. Low values mean higher affinity, high ones lower affinity. For orientation: IC50 means the concentration at which inhibition is half-maximal. Low values mean greater potency, high ones weaker potency.
